Measured values from ChEMBL document CHEMBL3745676, “Alkylamino derivatives of N-benzylpyrazine-2-carboxamide: synthesis and antimycobacterial evaluation” (Medchemcomm, 2015).
Converted amounts (≈) assume the structure as drawn. The source made the active and inactive calls. The calls are words filed in the database; no cut-off is given here.

Legend:
Influenza A virus [1] = assay: Antiviral activity against Influenza A virus (A/Puerto Rico/8/(H1N1)) assessed as inhibition of virus-induced cytopathic effect after 3 to 6 days by formazan-based MTS assay; assay type: functional, organism-based
Lichtheimia corymbifera = assay: Antifungal activity against Lichtheimia corymbifera 272 after 24 to 48 hrs by broth microdilution method; assay type: functional
[2] = Cytotoxicity against human HeLa cells assessed as cell viability after 4 to 6 days by microscopic analysis; assay type: cell-based
Mycobacterium avium [3] = assay: Antimycobacterial activity against Mycobacterium avium CNCTC My 152/73 after 5 days by microplate alamar blue assay; assay type: functional; details: CNCTC My 152/73, 120 h
[4] = tested on: Trichophyton mentagrophytes; assay: Antifungal activity against Trichophyton mentagrophytes 445 after 72 to 120 hrs by broth microdilution method; assay type: functional
[5] = Cytotoxicity against African green monkey Vero cells assessed as cell viability after 4 to 6 days by microscopic analysis; assay type: cell-based; details: chlorocebus sabaeus
[6] = tested on: Mycobacterium tuberculosis; assay: Antimycobacterial activity against Mycobacterium tuberculosis H37Rv CNCTC My 331/88 incubated for 10 to 14 days by microplate alamar blue assay; assay type: functional
Candida albicans = assay: Antifungal activity against Candida albicans ATCC 44859 after 24 to 48 hrs by broth microdilution method; assay type: functional
Candida tropicalis = assay: Antifungal activity against Candida tropicalis 156 after 24 to 48 hrs by broth microdilution method; assay type: functional
Escherichia coli = assay: Antibacterial activity against Escherichia coli CCM 4517 after 24 to 48 hrs by broth microdilution method; assay type: functional
Mycobacterium kansasii = assay: Antimycobacterial activity against Mycobacterium kansasii CNCTC My 235/80 incubated for 5 to 7 days by microplate alamar blue assay; assay type: functional
[7] = Cytotoxicity against MDCK cells assessed as cell viability after 4 to 6 days by formazan-based MTS assay; design: species or system Canis lupus familiaris; details: dog
Trichosporon asahii = assay: Antifungal activity against Trichosporon asahii 1188 after 24 to 48 hrs by broth microdilution method; assay type: functional
[8] = Cytotoxicity against HEL cells assessed as cell viability after 4 to 6 days by microscopic analysis; assay type: cell-based; details: human
Aspergillus fumigatus = assay: Antifungal activity against Aspergillus fumigatus 231 after 24 to 48 hrs by broth microdilution method; assay type: functional
Klebsiella pneumoniae [9] = assay: Antibacterial activity against ESBL positive Klebsiella pneumoniae J 14368/08 after 24 to 48 hrs by broth microdilution method; assay type: functional
Influenza A virus [10] = assay: Antiviral activity against Influenza A virus (A/Puerto Rico/8/(H1N1)) assessed as inhibition of virus-induced cytopathic effect after 3 to 6 days by microscopic analysis; assay type: functional, organism-based
Mycobacterium avium [11] = assay: Antimycobacterial activity against Mycobacterium avium CNCTC My 80/72 after 5 days by microplate alamar blue assay; assay type: functional; details: CNCTC My 80/72, 120 h
Nakaseomyces glabratus = assay: Antifungal activity against Candida glabrata 20/I after 24 to 48 hrs by broth microdilution method; assay type: functional
[12] = Cytotoxicity against MDCK cells assessed as cell viability after 4 to 6 days by microscopic analysis; assay type: cell-based, Canis lupus familiaris; details: dog
Pseudomonas aeruginosa = assay: Antibacterial activity against Pseudomonas aeruginosa CCM 1961 after 24 to 48 hrs by broth microdilution method; assay type: functional
Klebsiella pneumoniae [13] = assay: Antibacterial activity against Klebsiella pneumoniae D 11750/08 after 24 to 48 hrs by broth microdilution method; assay type: functional
[14] = Cytotoxicity against CRFK cells assessed as cell viability after 4 to 6 days by formazan-based MTS assay; design: species or system Felis catus; details: cat
Pichia kudriavzevii = assay: Antifungal activity against Candida krusei E28 after 24 to 48 hrs by broth microdilution method; assay type: functional
[15] = Lipophilicity, logK of the compound by RP-HPLC analysis; assay type: physicochemical
Staphylococcus aureus = assay: Antibacterial activity against methicillin-resistant Staphylococcus aureus H 5996/08 after 24 to 48 hrs by broth microdilution method; assay type: functional, organism-based
[16] = tested on: Mycobacterium tuberculosis; assay: Inhibition of mycolic acid synthesis in [1,2-14C]-acetate-labelled Mycobacterium tuberculosis H37Ra at 5 ug/ml preincubated for 20 hrs followed by radiolabelling measured after 24 hrs by autoradiography; assay type: functional, organism-based
[17] = tested on: Mycobacterium tuberculosis; assay: Potency index, ratio of pyrazinamide MIC to compound MIC for Mycobacterium tuberculosis H37Rv CNCTC My 331/88; assay type: functional
[18] = tested on: Mycobacterium tuberculosis; assay: Effect on short chain fatty acids production in [1,2-14C]-acetate-labelled Mycobacterium tuberculosis H37Ra at 5 ug/ml preincubated for 20 hrs followed by radiolabelling measured after 24 hrs by autoradiography; assay type: functional, organism-based
[19] = tested on: Mycobacterium tuberculosis; assay: Antimycobacterial activity against Mycobacterium tuberculosis H37Rv; assay type: functional

SMILES	EC50 (Influenza A virus [1])	MIC (Lichtheimia corymbifera)	MCC [2]	MIC (Mycobacterium avium [3])	MIC [4]	MCC [5]	MIC [6]	MIC (Candida albicans)	MIC (Candida tropicalis)	MIC95 (Escherichia coli)	MIC (Mycobacterium kansasii)	CC50 [7]	MIC (Trichosporon asahii)	MCC [8]	MIC (Aspergillus fumigatus)	MIC95 (Klebsiella pneumoniae [9])	EC50 (Influenza A virus [10])	MIC (Mycobacterium avium [11])	MIC (Nakaseomyces glabratus)	log K [15]	other results
CCCCCCNc1cncc(C(=O)NCc2ccccc2)n1	> 100 µM	> 500 µM	> 100 µM	> 100 µg/mL	> 500 µM	100 µM	20 µM (≈ 6.25 µg/mL)	> 500 µM	> 500 µM	> 500 µM	40 µM	9.5 µM	> 500 µM	> 100 µM	> 500 µM	> 500 µM	> 100 µM	> 100 µg/mL	> 500 µM	0.986	MCC [12]: 20 µM; MIC95 (Pseudomonas aeruginosa): > 500 µM; MIC95 (Klebsiella pneumoniae [13]): > 500 µM; CC50 [14]: > 100 µM; MIC (Pichia kudriavzevii): > 500 µM; Activity (Staphylococcus aureus): inactive
CCCCCCCNc1cncc(C(=O)NCc2ccccc2)n1	> 100 µM	> 500 µM	> 100 µM	> 100 µg/mL	> 500 µM	> 100 µM	10 µM (≈ 3.26 µg/mL)	> 500 µM	> 500 µM	> 500 µM	38 µM	2.4 µM	> 500 µM	> 100 µM	> 500 µM	> 500 µM	> 100 µM	> 100 µg/mL	> 500 µM	1.207	inhibition [16]: inactive; Ratio [17]: <=20; MCC [12]: 4 µM; MIC95 (Pseudomonas aeruginosa): > 500 µM; MIC95 (Klebsiella pneumoniae [13]): > 500 µM; CC50 [14]: > 100 µM; MIC (Pichia kudriavzevii): > 500 µM; Activity (Staphylococcus aureus): inactive
CCCCCCNc1cnc(C(=O)NCc2ccccc2)cn1	62 µM	> 500 µM	> 100 µM	> 100 µg/mL	> 500 µM	≥ 100 µM	10 µM (≈ 3.12 µg/mL)	> 500 µM	> 500 µM	> 500 µM	> 100 µg/mL	> 100 µM	> 500 µM	> 100 µM	> 500 µM	> 500 µM	52 µM	> 100 µg/mL	> 500 µM	0.859	Ratio [17]: <=20; MCC [12]: > 100 µM; MIC95 (Pseudomonas aeruginosa): > 500 µM; MIC95 (Klebsiella pneumoniae [13]): > 500 µM; CC50 [14]: > 100 µM; MIC (Pichia kudriavzevii): > 500 µM
CCCCCNc1cncc(C(=O)NCc2ccccc2)n1	> 100 µM	> 500 µM	> 100 µM	> 100 µg/mL	> 500 µM	> 100 µM	42 µM (≈ 12.5 µg/mL)	> 500 µM	> 500 µM	> 500 µM	84 µM	33 µM	> 500 µM	> 100 µM	> 500 µM	> 500 µM	> 100 µM	> 100 µg/mL	> 500 µM	0.768	MCC [12]: 20 µM; MIC95 (Pseudomonas aeruginosa): > 500 µM; MIC95 (Klebsiella pneumoniae [13]): > 500 µM; CC50 [14]: > 100 µM; MIC (Pichia kudriavzevii): > 500 µM; Activity (Staphylococcus aureus): inactive
CCCCNc1cncc(C(=O)NCc2ccccc2)n1	> 100 µM	> 500 µM	> 100 µM	> 100 µg/mL	> 500 µM	100 µM	44 µM (≈ 12.5 µg/mL)	> 500 µM	> 500 µM	> 500 µM	176 µM	66 µM	> 500 µM	> 100 µM	> 500 µM	> 500 µM	> 100 µM	> 100 µg/mL	> 500 µM	0.549	MCC [12]: 100 µM; MIC95 (Pseudomonas aeruginosa): > 500 µM; MIC95 (Klebsiella pneumoniae [13]): > 500 µM; CC50 [14]: > 100 µM; MIC (Pichia kudriavzevii): > 500 µM; Activity (Staphylococcus aureus): inactive
NNC(=O)c1ccncc1 [ISONIAZID]	–	–	–	–	–	–	2.8 µM (≈ 0.384 µg/mL)	–	–	–	11 µM	–	–	–	–	–	–	–	–	-0.743	inhibition [16]: Active; Activity [18]: inactive
CCCCCCCNc1cnc(C(=O)NCc2ccccc2)cn1	47 µM	> 500 µM	> 100 µM	> 100 µg/mL	> 500 µM	≥ 100 µM	10 µM (≈ 3.26 µg/mL)	> 500 µM	> 500 µM	> 500 µM	> 100 µg/mL	> 100 µM	> 500 µM	> 100 µM	> 500 µM	> 500 µM	21 µM	> 100 µg/mL	> 500 µM	1.089	Ratio [17]: <=20; MCC [12]: > 100 µM; MIC95 (Pseudomonas aeruginosa): > 500 µM; MIC95 (Klebsiella pneumoniae [13]): > 500 µM; CC50 [14]: > 100 µM; MIC (Pichia kudriavzevii): > 500 µM
O=C(NCc1ccccc1)c1cncc(Cl)n1	–	–	–	> 100 µg/mL	–	–	–	–	–	–	404 µM	–	–	–	–	–	–	> 100 µg/mL	–	0.2	MIC [19]: 50 µM (≈ 12.4 µg/mL)
O=C(NCc1ccccc1)c1cnc(Cl)cn1	–	–	–	> 100 µg/mL	–	–	–	–	–	–	100 µg/mL	–	–	–	–	–	–	> 100 µg/mL	–	0.186	MIC [19]: 100 µM (≈ 24.8 µg/mL)
